Reference: ChEMBL document CHEMBL4393656, “Cationic biaryl 1,2,3-triazolyl peptidomimetic amphiphiles targeting Clostridioides (Clostridium) difficile: Synthesis, antibacterial evaluation and an in vivo C. difficile infection model” (Eur J Med Chem, 2019)
Values after ≈ are worked out from the molar mass of the structure shown. Active and inactive are the calls of the source. No cut-off for these calls is given here.

Columns and labels:
Staphylococcus aureus [1] = test: Growth inhibition of Staphylococcus aureus ATCC 29213 incubated in MHB broth for 24 hrs; format: organism-based
Staphylococcus aureus [2] = test: Growth inhibition of methicillin resistant Staphylococcus aureus NCTC 10442 incubated in MHB medium for 24 hrs; format: organism-based
Pseudomonas aeruginosa = test: Growth inhibition of Pseudomonas aeruginosa ATCC 27853 incubated for 18 hrs; format: organism-based
Escherichia coli = test: Growth inhibition of Escherichia coli ATCC 25922 incubated for 18 hrs; format: organism-based
Clostridioides difficile [3] = test: Antibacterial activity against Clostridium difficile NSW132 RT027 incubated for 2 to 4 hrs in pre-reduced brucella broth supplemented with haemin/vitamin K and further incubation in anaerobic condition for 48 hrs; format: functional
Streptococcus pneumoniae = test: Growth inhibition of Streptococcus pneumoniae ATCC 49619 incubated in MHB medium with lysed horse blood and 5% CO2 for 24 hrs; format: organism-based
[4] = Cytotoxicity against HEK293 cells assessed as decrease in cell viability after 20 hrs by resazurin dye-based fluorescence assay; settings: human
Staphylococcus aureus [5] = test: Growth inhibition of methicillin-resistant Staphylococcus aureus ATCC 43300 incubated for 18 hrs; format: organism-based
Clostridioides difficile [6] = test: Antibacterial activity against Clostridium difficile ATCC 700057 incubated for 2 to 4 hrs in pre-reduced brucella broth supplemented with haemin/vitamin K and further incubation in anaerobic condition for 48 hrs; format: functional
Enterococcus faecalis = test: Growth inhibition of Enterococcus faecalis ATCC 29212 incubated in MHB broth for 24 hrs; format: organism-based
Acinetobacter baumannii = test: Growth inhibition of Acinetobacter baumannii ATCC 19606 incubated for 18 hrs without shaking by absorbance based monochromator plate reader analysis; format: organism-based, ATCC 19606 = CIP 70.34 = JCM 6841; settings: in vitro
Klebsiella pneumoniae = test: Growth inhibition of Klebsiella pneumoniae ATCC 700603 incubated for 18 hrs; format: organism-based
[7] = Haemolytic activity in sheep erythrocytes assessed as induction of haemolysis at 5 ug/ml incubated for 2 hrs relative to control; format: cell-based, Ovis aries, Erythrocyte; settings: read-out: Activity
[8] = Haemolytic activity in sheep erythrocytes assessed as induction of haemolysis at 50 ug/ml incubated for 2 hrs relative to control; format: cell-based, Ovis aries, Erythrocyte; settings: read-out: Activity
Clostridioides difficile [9] = test: (§1) Antibacterial activity against Clostridium difficile ribotype 027 M7404 spores infected in antibiotic cocktail-induced CDI C57BL/6J mouse model assessed as decrease in physiological appearance score at 100 mg/kg administered via oral gavage for every 12 hrs starting from 6 hrs post-infection and measured at 24 hrs post infection; format: functional, organism-based; settings: genomovar ribotype 027 M7404
Clostridioides difficile [10] = test: as §1, with “diarrhea” for “physiological appearance score”; format: functional, organism-based; settings: genomovar ribotype 027 M7404
Clostridioides difficile [11] = test: as §1, with “decrease in fecal spore load at 100” for “decrease in physiological appearance score at 100”, “post infection by heat shock based plating method” for “post infection”; format: functional, organism-based; settings: genomovar ribotype 027 M7404
Clostridioides difficile [12] = test: as §1, with “protection against bacterial infection” for “decrease in physiological appearance score”, “2 days” for “24 hrs”; format: functional, organism-based; settings: genomovar ribotype 027 M7404
Clostridioides difficile [13] = test: as §1, with “weight loss” for “physiological appearance score”; format: functional, organism-based; settings: genomovar ribotype 027 M7404
Staphylococcus aureus [14] = test: Induction of cytoplasmic membrane permeabilization in Staphylococcus aureus ATCC 29213 at 8 ug/ml by propidium iodide staining based fluorescence method; format: organism-based
Staphylococcus aureus [15] = test: Induction of cytoplasmic membrane depolarization in Staphylococcus aureus ATCC 29213 at 8 ug/ml by DiSC3-5 dye based fluorescence method; format: organism-based

Structure (SMILES) | MIC (Staphylococcus aureus [1]) | MIC (Staphylococcus aureus [2]) | MIC (Pseudomonas aeruginosa) | MIC (Escherichia coli) | MIC (Clostridioides difficile [3]) | MIC (Streptococcus pneumoniae) | CC50 at 20 h [4] | MIC (Staphylococcus aureus [5]) | MIC (Clostridioides difficile [6]) | MIC (Enterococcus faecalis) | MIC (Acinetobacter baumannii) | MIC (Klebsiella pneumoniae) | other results
CC(C)CCOc1ccccc1-c1ccccc1OCc1cn([C@H](CCCNC(=N)N)C(=O)NCc2ccccc2)nn1.Cl | 4 µg/mL | 8 µg/mL | > 32 µg/mL | > 32 µg/mL | 64 µg/mL | 4 µg/mL | 16.8 µg/mL | 8 µg/mL | 32 µg/mL | 8 µg/mL | 32 µg/mL | > 32 µg/mL | –
CC(C)CCOc1ccc2ccccc2c1-c1c(OCc2cn([C@H](CCCNC(=N)N)C(=O)NCCc3ccccc3)nn2)ccc2ccccc12.Cl | 8 µg/mL | – | > 32 µg/mL | > 32 µg/mL | 64 µg/mL | 16 µg/mL | > 32 µg/mL | 8 µg/mL | 16 µg/mL | 4 µg/mL | > 32 µg/mL | > 32 µg/mL | hemolysis at 2 h, 5 ug/ml [7]: 0.1%; hemolysis at 2 h, 50 ug/ml [8]: 55.2%
CC(C)CCOc1ccccc1-c1ccccc1OCc1cn(C[C@@H](CCCCN)NC(=O)[C@@H](CCCNC(=N)N)n2cc(CC3CCCCC3)nn2)nn1.Cl.Cl | – | – | – | – | – | – | – | – | 1 µg/mL | – | – | – | Activity (Clostridioides difficile [9]): inactive; Activity (Clostridioides difficile [10]): inactive; Activity (Clostridioides difficile [11]): inactive; Activity (Clostridioides difficile [12]): inactive; Activity (Clostridioides difficile [13]): inactive
CN[C@H](CC(C)C)C(=O)N[C@H]1C(=O)N[C@@H](CC(N)=O)C(=O)N[C@H]2C(=O)N[C@H]3C(=O)N[C@H](C(=O)N[C@H](C(=O)O)c4cc(O)cc(O)c4-c4cc3ccc4O)[C@H](O)c3ccc(c(Cl)c3)Oc3cc2cc(c3O[C@@H]2O[C@H](CO)[C@@H](O)[C@H](O)[C@H]2O[C@H]2C[C@](C)(N)[C@H](O)[C@H](C)O2)Oc2ccc(cc2Cl)[C@H]1O [VANCOMYCIN] | 1 µg/mL (≈ 0.69 µM) | 1 µg/mL (≈ 0.69 µM) | – | – | 0.5 µg/mL (≈ 0.345 µM) | 1 µg/mL (≈ 0.69 µM) | – | 1 µg/mL (≈ 0.69 µM) | 0.5 µg/mL (≈ 0.345 µM) | 4 µg/mL (≈ 2.76 µM) | – | – | Activity (Staphylococcus aureus [14]): inactive; Activity (Staphylococcus aureus [15]): inactive
CC(C)CCOc1ccccc1-c1ccccc1OCc1cn(C[C@@H](CCCCN)NC(=O)[C@@H](CCCNC(=N)N)n2cc(C3CCCCC3)nn2)nn1.Cl.Cl | – | – | – | – | – | – | – | – | 4 µg/mL | – | – | – | Activity (Clostridioides difficile [9]): inactive; Activity (Clostridioides difficile [10]): inactive; Activity (Clostridioides difficile [11]): inactive; Activity (Clostridioides difficile [12]): inactive; Activity (Clostridioides difficile [13]): inactive
CC(C)CCOc1ccc2ccccc2c1-c1c(OCc2cn([C@H](CCCNC(=N)N)C(=O)N[C@H](CCCCN)Cn3cc(CC4CCCCC4)nn3)nn2)ccc2ccccc12.Cl.Cl | 4 µg/mL | – | 32 µg/mL | > 32 µg/mL | 8 µg/mL | 2 µg/mL | > 32 µg/mL | – | 8 µg/mL | 4 µg/mL | 32 µg/mL | > 32 µg/mL | hemolysis at 2 h, 5 ug/ml [7]: 1.8%; hemolysis at 2 h, 50 ug/ml [8]: 71.5%
CC(C)CCOc1ccccc1-c1ccccc1OCc1cn([C@H](CCCNC(=N)N)C(=O)Nc2cccc(F)c2)nn1.Cl | 4 µg/mL | 8 µg/mL | > 32 µg/mL | > 32 µg/mL | 64 µg/mL | 8 µg/mL | > 32 µg/mL | 4 µg/mL | 32 µg/mL | 8 µg/mL | > 32 µg/mL | > 32 µg/mL | –
CC(C)CCOc1ccccc1-c1ccccc1OCc1cn([C@H](CCCNC(=N)N)C(=O)N[C@H](CCCCN)Cn2cc(CCc3ccccc3)nn2)nn1.Cl.Cl | 4 µg/mL | 8 µg/mL | 16 µg/mL | 16 µg/mL | 16 µg/mL | 2 µg/mL | > 32 µg/mL | 4 µg/mL | 16 µg/mL | 8 µg/mL | 32 µg/mL | 16 µg/mL | –
CC(C)CCOc1ccc2ccccc2c1-c1c(OCc2cn([C@H](CCCCN)C(=O)N[C@H](CCCNC(=N)N)Cn3cc(CCc4ccccc4)nn3)nn2)ccc2ccccc12.Cl.Cl | 4 µg/mL | – | 16 µg/mL | > 32 µg/mL | 16 µg/mL | 4 µg/mL | > 32 µg/mL | 2 µg/mL | 16 µg/mL | 4 µg/mL | 8 µg/mL | > 32 µg/mL | hemolysis at 2 h, 5 ug/ml [7]: 1.5%; hemolysis at 2 h, 50 ug/ml [8]: 75.2%
CC(C)CCOc1ccc2ccccc2c1-c1c(OCc2cn([C@H](CCCCN)C(=O)N[C@H](CCCNC(=N)N)C(=O)N3CCCCC3)nn2)ccc2ccccc12.Cl.Cl | 8 µg/mL | – | 16 µg/mL | 32 µg/mL | 32 µg/mL | 8 µg/mL | 16.8 µg/mL | 2 µg/mL | 16 µg/mL | 8 µg/mL | 8 µg/mL | 16 µg/mL | –
CC(C)CCOc1ccccc1-c1ccccc1OCc1cn([C@H](CCCCN)C(=O)NCCc2ccc(F)cc2)nn1.Cl | 4 µg/mL | 8 µg/mL | > 32 µg/mL | > 32 µg/mL | 64 µg/mL | 8 µg/mL | 5.5 µg/mL | 8 µg/mL | 32 µg/mL | 8 µg/mL | 16 µg/mL | > 32 µg/mL | –
CC(C)CCOc1ccc2ccccc2c1-c1c(OCC(=O)N[C@H](CCCNC(=N)N)C(=O)NCCc2ccc(F)cc2)ccc2ccccc12.Cl | > 128 µg/mL | – | > 32 µg/mL | > 32 µg/mL | 64 µg/mL | > 128 µg/mL | > 32 µg/mL | 4 µg/mL | > 128 µg/mL | > 128 µg/mL | > 32 µg/mL | > 32 µg/mL | –
CC(C)CCOc1ccccc1-c1ccccc1OCc1cn([C@H](CCCNC(=N)N)C(=O)N[C@H](CCCCN)Cn2cc(CC3CCCCC3)nn2)nn1.Cl.Cl | 4 µg/mL | – | 16 µg/mL | 16 µg/mL | 16 µg/mL | 2 µg/mL | > 32 µg/mL | 8 µg/mL | 8 µg/mL | 4 µg/mL | 16 µg/mL | 16 µg/mL | hemolysis at 2 h, 5 ug/ml [7]: 1.6%; hemolysis at 2 h, 50 ug/ml [8]: 33.7%
CC(C)CCOc1ccccc1-c1ccccc1OCc1cn([C@H](CCCCN)C(=O)N[C@H](CCCNC(=N)N)Cn2cc(CC3CCCCC3)nn2)nn1.Cl.Cl | 4 µg/mL | – | 32 µg/mL | 8 µg/mL | 16 µg/mL | 8 µg/mL | 19.1 µg/mL | 2 µg/mL | 16 µg/mL | 4 µg/mL | 8 µg/mL | 16 µg/mL | –
CC(C)CCOc1ccccc1-c1ccccc1OCc1cn([C@H](CCCNC(=N)N)C(=O)N[C@H](CCCCN)Cn2cc(Cc3ccccc3)nn2)nn1.Cl.Cl | 8 µg/mL | – | 16 µg/mL | > 32 µg/mL | 16 µg/mL | 4 µg/mL | > 32 µg/mL | 8 µg/mL | 32 µg/mL | 8 µg/mL | 32 µg/mL | 32 µg/mL | –
CC(C)CCOc1ccc2ccccc2c1-c1c(OCc2cn([C@H](CCCNC(=N)N)C(=O)NCc3ccccc3)nn2)ccc2ccccc12.Cl | 4 µg/mL | 8 µg/mL | > 32 µg/mL | > 32 µg/mL | 16 µg/mL | 8 µg/mL | 16.5 µg/mL | 8 µg/mL | 16 µg/mL | 2 µg/mL | > 32 µg/mL | > 32 µg/mL | –
CC(C)CCOc1ccc2ccccc2c1-c1c(OCc2cn([C@H](CCCCN)C(=O)N[C@H](CCCNC(=N)N)C(=O)NCc3ccccc3)nn2)ccc2ccccc12.Cl.Cl | 8 µg/mL | – | 32 µg/mL | > 32 µg/mL | 16 µg/mL | 8 µg/mL | 17.4 µg/mL | 4 µg/mL | 16 µg/mL | 8 µg/mL | 32 µg/mL | 32 µg/mL | –
